Source: ChEMBL document CHEMBL3217615, “Novel 3,5-bis(arylidiene)-4-piperidone based monocarbonyl analogs of curcumin: anticancer activity evaluation and mode of action study” (2014)

Columns and labels:
Assay type in all cases: functional
COLO 205 [1] = assay: Induction of apoptosis in human COLO205 cells assessed as early apoptosis cells level at 10 uM after 24 hrs by Annexin V/propidium iodide staining-based fluorescence microscopy
RPMI-8226 [2] = assay: Growth inhibition of human RPMI8226 cells assessed as cell growth at 10^-6 M after 48 hrs by sulforhodamine B assay; settings: RPMI-8226, 48 h, read-out: Activity
HL-60(TB) = assay: Growth inhibition of human HL-60(TB) cells assessed as cell growth at 10^-6 M after 48 hrs by sulforhodamine B assay; settings: HL-60, 48 h, read-out: Activity
MDA-MB-468 [3] = assay: Growth inhibition of human MDA-MB-468 cells assessed as cell growth at 10^-7 M after 48 hrs by sulforhodamine B assay; settings: MDA-MB-468, 48 h, read-out: Activity
[4] = Growth inhibition of human RXF393 cells assessed as cell growth at 10^-7 M after 48 hrs by sulforhodamine B assay; settings: RXF 393, 48 h, read-out: Activity
[5] = Growth inhibition of human OVCAR4 cells assessed as cell growth at 10^-7 M after 48 hrs by sulforhodamine B assay; settings: OVCAR-4, 48 h, read-out: Activity
[6] = Growth inhibition of human SF295 cells assessed as cell growth at 10^-5 M after 48 hrs by sulforhodamine B assay; settings: SF-295, 48 h, read-out: Activity
T47D = assay: Growth inhibition of human T47D cells assessed as cell growth at 10^-6 M after 48 hrs by sulforhodamine B assay; settings: read-out: Activity
SK-MEL-5 = assay: Growth inhibition of human SK-MEL-5 cells assessed as cell growth at 10^-4 M after 48 hrs by sulforhodamine B assay; settings: SK-MEL-5, 48 h, read-out: Activity
SK-MEL-28 = assay: Growth inhibition of human SK-MEL-28 cells assessed as cell growth at 10^-4 M after 48 hrs by sulforhodamine B assay; settings: SK-MEL-28, 48 h, read-out: Activity
SK-MEL-2 = assay: Growth inhibition of human SK-MEL-2 cells assessed as cell growth at 10^-4 M after 48 hrs by sulforhodamine B assay; settings: SK-MEL-2, 48 h, read-out: Activity
[7] = Growth inhibition of human SF539 cells assessed as cell growth at 10^-4 M after 48 hrs by sulforhodamine B assay; settings: SF-539, 48 h, read-out: Activity
SW-620 = assay: Growth inhibition of human SW620 cells assessed as cell growth at 10^-4 M after 48 hrs by sulforhodamine B assay; settings: SW-620, 48 h, read-out: Activity
[8] = Growth inhibition of human HOP92 cells assessed as cell growth at 10^-4 M after 48 hrs by sulforhodamine B assay; settings: HOP-92, 48 h, read-out: Activity
SR = assay: Growth inhibition of human SR cells assessed as cell growth at 10^-4 M after 48 hrs by sulforhodamine B assay; settings: read-out: Activity
[9] = Growth inhibition of human UACC257 cells assessed as cell growth at 10^-8 M after 48 hrs by sulforhodamine B assay; settings: UACC-257, 48 h; for growth at 0.01 µM: read-out: Activity; for TGI: read-out: pTGI (converted)
U-251 = assay: Growth inhibition of human U251 cells assessed as cell growth at 10^-8 M after 48 hrs by sulforhodamine B assay; settings: U-251, 48 h; for growth at 0.01 µM: read-out: Activity; for TGI: read-out: pTGI (converted)
[10] = Growth inhibition of human SF295 cells assessed as cell growth at 10^-8 M after 48 hrs by sulforhodamine B assay; settings: SF-295, 48 h; for growth at 0.01 µM: read-out: Activity; for TGI: read-out: pTGI (converted)
COLO 205 [11] = assay: Growth inhibition of human COLO205 cells assessed as cell growth at 10^-8 M after 48 hrs by sulforhodamine B assay; settings: COLO 205, 48 h; for growth at 0.01 µM: read-out: Activity; for TGI: read-out: pTGI (converted)
A549 [12] = assay: Growth inhibition of human A549/ATCC cells assessed as cell growth at 10^-8 M after 48 hrs by sulforhodamine B assay; settings: A549, 48 h; for growth at 0.01 µM: read-out: Activity; for TGI: read-out: pTGI (converted)
ACHN = assay: Growth inhibition of human ACHN cells after 48 hrs by sulforhodamine B assay; settings: for CC50: read-out: LC50 (the source's name)
[13] = Growth inhibition of human OVCAR3 cells after 48 hrs by sulforhodamine B assay; settings: OVCAR-3, 48 h; for CC50: read-out: LC50 (the source's name)
[14] = Growth inhibition of human SF295 cells after 48 hrs by sulforhodamine B assay; settings: SF-295, 48 h; for CC50: read-out: LC50 (the source's name)
COLO 205 [15] = assay: Growth inhibition of human COLO205 cells after 48 hrs by sulforhodamine B assay; settings: COLO 205, 48 h; for CC50: read-out: LC50 (the source's name)
RPMI-8226 [16] = assay: Growth inhibition of human RPMI8226 cells after 48 hrs by sulforhodamine B assay; settings: RPMI-8226, 48 h
SN12C = assay: Growth inhibition of human SN12C cells assessed as cell growth at 10^-4 M after 48 hrs by sulforhodamine B assay; settings: read-out: Activity
IGROV-1 = assay: Growth inhibition of human IGROV1 cells assessed as cell growth at 10^-7 M after 48 hrs by sulforhodamine B assay; settings: IGROV-1, 48 h, read-out: Activity
[17] = Growth inhibition of human HCC2998 cells assessed as cell growth at 10^-7 M after 48 hrs by sulforhodamine B assay; settings: HCC 2998, 48 h, read-out: Activity
NCI-H226 = assay: Growth inhibition of human NCI-H226 cells assessed as cell growth at 10^-7 M after 48 hrs by sulforhodamine B assay; settings: NCI-H226, 48 h, read-out: Activity
A549 [18] = assay: Growth inhibition of human A549/ATCC cells assessed as cell growth at 10^-7 M after 48 hrs by sulforhodamine B assay; settings: A549, 48 h, read-out: Activity
CCRF-CEM = assay: Growth inhibition of human CCRF-CEM cells assessed as cell growth at 10^-7 M after 48 hrs by sulforhodamine B assay; settings: read-out: Activity
MDA-MB-468 [19] = assay: Growth inhibition of human MDA-MB-468 cells assessed as cell growth at 10^-8 M after 48 hrs by sulforhodamine B assay; settings: MDA-MB-468, 48 h; for growth at 0.01 µM: read-out: Activity; for CC50: read-out: pLC50 (the source's name) (converted); for TGI: read-out: pTGI (converted)

Compound Cc1ccc(S(=O)(=O)N2C/C(=C\c3cc(F)cc(F)c3)C(=O)/C(=C/c3cc(F)cc(F)c3)C2)cc1 has an Activity (COLO 205 [1]) of 30%, a growth at 1 µM (RPMI-8226 [2]) of -16% and a growth at 1 µM (HL-60(TB)) of 4%. The growth at 0.1 µM (MDA-MB-468 [3]) was 83%, the growth at 0.1 µM [4] was 88% and the growth at 0.1 µM [5] was 93%. For the same compound, the growth at 10 µM [6] was -44%, the growth at 1 µM (T47D) was 74% and the growth at 100 µM (SK-MEL-5) was -97%. It also gave a growth at 100 µM (SK-MEL-28) of -98%, a growth at 100 µM (SK-MEL-2) of -77% and a growth at 100 µM [7] of -94%. The growth at 100 µM (SW-620) was -74%, the growth at 100 µM [8] was -58% and the growth at 100 µM (SR) was -30%. The GI50 [9] was 933 nM, the LC50 [9] was 8.51 µM and the growth at 0.01 µM [9] was 93%. For the same compound, the TGI [9] was 2880 nM, the GI50 (U-251) was 186 nM and the LC50 (U-251) was 2040 nM. The growth at 0.01 µM (U-251) was 94%, the TGI (U-251) was 525 nM and the GI50 [10] was 468 nM. For the same compound, the LC50 [10] was 15.8 µM, the growth at 0.01 µM [10] was 92% and the TGI [10] was 2.51 µM. It also gave a GI50 (COLO 205 [11]) of 617 nM, an LC50 (COLO 205 [11]) of 6.17 µM and a growth at 0.01 µM (COLO 205 [11]) of 107%. The TGI (COLO 205 [11]) was 2090 nM, the GI50 (A549 [12]) was 2880 nM and the LC50 (A549 [12]) was over 100 µM. For the same compound, the growth at 0.01 µM (A549 [12]) was 94%, the TGI (A549 [12]) was 14.8 µM and the GI50 (ACHN) was 246 nM. It also gave a TGI (ACHN) of 622 nM, a CC50 (ACHN) of 2390 nM and a GI50 [13] of 441 nM. For the same compound, the TGI [13] was 1440 nM, the CC50 [13] was 4.56 µM and the GI50 [14] was 466 nM. It also gave a TGI [14] of 2.5 µM, a CC50 [14] of 15.7 µM and a GI50 (COLO 205 [15]) of 612 nM. For the same compound, the TGI (COLO 205 [15]) was 2110 nM, the CC50 (COLO 205 [15]) was 6.14 µM and the GI50 (RPMI-8226 [16]) was 37.2 nM. The LC50 (RPMI-8226 [16]) was 93.8 µM, the TGI (RPMI-8226 [16]) was 331 nM and the growth at 100 µM (SN12C) was -96%. The growth at 0.1 µM (IGROV-1) was 106%, the growth at 0.1 µM [17] was 105% and the growth at 0.1 µM (NCI-H226) was 94%. For the same compound, the growth at 0.1 µM (A549 [18]) was 93%, the growth at 0.1 µM (CCRF-CEM) was 44% and the GI50 (MDA-MB-468 [19]) was 347 nM. The growth at 0.01 µM (MDA-MB-468 [19]) was 90%, the CC50 (MDA-MB-468 [19]) was 5.75 µM and the TGI (MDA-MB-468 [19]) was 1700 nM.
Compound O=C1/C(=C/c2ccc(Cl)cc2Cl)CN(S(=O)(=O)c2ccccc2)C/C1=C\c1ccc(Cl)cc1Cl has an Activity (COLO 205 [1]) of 52%, a growth at 1 µM (RPMI-8226 [2]) of -25% and a growth at 1 µM (HL-60(TB)) of 36%. For the same compound, the growth at 0.1 µM (MDA-MB-468 [3]) was 94%, the growth at 0.1 µM [4] was 84% and the growth at 0.1 µM [5] was 82%. The growth at 10 µM [6] was -3%, the growth at 1 µM (T47D) was 55% and the growth at 100 µM (SK-MEL-5) was 60%. The growth at 100 µM (SK-MEL-28) was 42%, the growth at 100 µM (SK-MEL-2) was 6% and the growth at 100 µM [7] was -40%. For the same compound, the growth at 100 µM (SW-620) was -27%, the growth at 100 µM [8] was -20% and the growth at 100 µM (SR) was -21%. For the same compound, the GI50 [9] was 4070 nM, the LC50 [9] was over 100 µM and the growth at 0.01 µM [9] was 94%. For the same compound, the TGI [9] was over 100000 nM, the GI50 (U-251) was 174 nM and the LC50 (U-251) was 813 nM. The growth at 0.01 µM (U-251) was 96%, the TGI (U-251) was 372 nM and the GI50 [10] was 347 nM. It also gave an LC50 [10] of over 100 µM, a growth at 0.01 µM [10] of 91% and a TGI [10] of 6.61 µM. It also gave a GI50 (COLO 205 [11]) of 427 nM, an LC50 (COLO 205 [11]) of over 100 µM and a growth at 0.01 µM (COLO 205 [11]) of 106%. For the same compound, the TGI (COLO 205 [11]) was 2000 nM, the GI50 (A549 [12]) was 275 nM and the LC50 (A549 [12]) was over 100 µM. For the same compound, the growth at 0.01 µM (A549 [12]) was 93%, the TGI (A549 [12]) was 0.891 µM and the GI50 (ACHN) was 874 nM. The TGI (ACHN) was 4560 nM, the CC50 (ACHN) was over 100000 nM and the GI50 [13] was 310 nM. It also gave a TGI [13] of 818 nM, a CC50 [13] of 5.01 µM and a GI50 [14] of 345 nM. For the same compound, the TGI [14] was 6.67 µM, the CC50 [14] was over 100 µM and the GI50 (COLO 205 [15]) was 424 nM. It also gave a TGI (COLO 205 [15]) of 2010 nM, a CC50 (COLO 205 [15]) of over 100 µM and a GI50 (RPMI-8226 [16]) of 225 nM. The LC50 (RPMI-8226 [16]) was over 100 µM, the TGI (RPMI-8226 [16]) was 605 nM and the growth at 100 µM (SN12C) was -44%. It also gave a growth at 0.1 µM (IGROV-1) of 130%, a growth at 0.1 µM [17] of 102% and a growth at 0.1 µM (NCI-H226) of 97%. The growth at 0.1 µM (A549 [18]) was 94%, the growth at 0.1 µM (CCRF-CEM) was 92% and the GI50 (MDA-MB-468 [19]) was 1120 nM. The growth at 0.01 µM (MDA-MB-468 [19]) was 90%, the CC50 (MDA-MB-468 [19]) was over 100 µM and the TGI (MDA-MB-468 [19]) was 3890 nM.
